Measured values published in patent US10654918B2, “Inflammatory disease diagnosis and methods of treatment using down-regulators of lipopolysaccharide-responsive beige-like anchor” (University of South Florida, priority 2013, dated 2020).

How the values were obtained:
[1] = tested on: CVID receptors, B220 and TLR4; assay: LPS regulates CVID receptors, B220 and TLR4 in vivo (cytometry of spleen and bone marrow cells); parameters: species or system C57BL/6J mice; settings: for B220 Median Intensity fold / B220 Percentage fold / BAFFR Median Intensity fold / BAFFR Percentage fold / CD19 Median Intensity fold / CD19 Percentage fold / CD21 Median Intensity fold / CD21 Percentage fold / TACI Median Intensity fold / TACI Percentage fold / TLR4 Median Intensity fold / TLR4 Percentage fold: PBS vs LPS
Method: (§1) FIG. 34(A)-(B) are graphs showing LPS regulates BAFFR in vivo and in vitro. C57BL/6J mice of 2-month age were injected intraperitoneally with LPS (5 μg/g body weight) or PBS (control). For in vitro LPS stimulation, cells from mouse spleen or bone marrow were cultured with or without LPS (1 μg/ml) for 24 hr. Cells were stained with fluorophores-conjugated BAFFR and TACI antibodies and DAPI for dead/live discrimination and analyzed with cytometry. (A) Spleocytes without LPS-P3, (B) bone marrow cells without LPS-P3. Negative gating was based on B220 negative cells, which are negative for BAFFR and TACI. Numbers other than percentage are arbitrary MFI units. All experiments were done in triplicate for in the vitro experiment and data shown is representative of two separate experiments.
(§2) To investigate whether CVID genes also respond to LPS, mice were injected intraperitoneally with LPS. Twenty-four hours later the spleen and bone marrow cells were harvested and subjected to cytometry assay.

[2] = tested on: splenocytes and bone marrow cells; assay: Ex vivo culture of splenocytes and bone marrow cells with LPS; assay type: cell-based, mouse; settings: ex vivo cell culture, 24 h LPS stimulation (1 μg/ml)
Method: as §1, §2

[3] = tested on: RAW264.7 macrophage cells; assay: Time-lapse video of LRBA-associated vesicle movement after LPS; assay type: cell-based, mouse
Method: FIGS. 14(A) and (B) are graphs showing LPS stimulates LRBA-positive vesicles movements. RAW264.7 macrophage cells stably transfected with pBWEGFP were cultured in a glass bottom dish and put into the culture chamber. LPS was added at final concentration of 100 ng/ml. The time-lapse video of four living cells was taken at one picture per second using the Leica TCS SP2 laser scanning inverted confocal microscope with a mini cell culture chamber at 37° C. and 5% CO2. (A) Average speed of LRBA-associated vesicles; (B) Average maximum speed of LRBA-associated vesicles; The two tails and unpaired T test p values: ***p<0.001; *p<0.0138 (A); ***p<0.0005; *p<0.0117 (B).
Time lapse video was taken for living macrophage cells. RAW264.7 macrophage cells stably transfected with pBWEGFP were cultured in a glass bottom dish and put into the mini cell culture chamber at 37° C. and 5% CO2 in a Leica TCS SP2 laser scanning inverted confocal microscope. LPS was added at final concentration of 100 ng/ml. The time-lapse video of four living cells was taken at one picture per second using the Avg. timelapse interval: 1000.05 ms (1.0 Hz) (+/−8.9 ms); Initial SAC Position: 1700; Objective: 100× (magnification: 100.00×); Mag. changer: EMCCD (magnification: 1.00×); 8 inning: 1×1; Channel 1: c488em at 50 ms. Gain: 3 Intensification: 700 ND: 60 [Independent]. […]

LRBA = assay: Plasma LRBA levels (ELISA) in mice stimulated with LPS; assay type: in vivo
Method: (A) Mice stimulated with LPS (1 μg/g body weight) for 6 hours. (B) OVA induced asthma mouse model.
(§3) (C) Asthma patients with an exacerbation or controlled symptoms; (D) Human mononuclear leukocytes stimulated with LPS (1 μg/ml). LPS was derived from Escherichia coli 0111:B4 (Sigma, St. Louis, Mo.). LRBA levels were determined by LRBA ELISA Kit using 100 μl of plasma or conditioned media in each well, following the manufacturer's protocol.
(§4) A) Mice stimulated with LPS (5 μg/g body weight) for 6 hours. (B) OVA induced asthma mouse model; (C) Asthma patients with an exacerbation or controlled symptoms; (D) Human mononuclear leukocytes stimulated with LPS (1 μg/ml). LRBA levels were determined by LRBA ELISA Kit using 100 μl of plasma or conditioned media in each well. C57BL/6J mice were injected intraperitoneally with 500 μl of 12 mg/kg (body weight) of LRBA antibody or control normal rabbit 1 gG suspended in saline three times. LPS at 7.5 mg/kg in 0.2 ml PBS i.p was followed. About 100 μl of blood was collected by submandibular venipuncture after 2 hours of LPS injection. Plasma samples were obtained by centrifugation at 3000 rpm for 15 min and used for cytokine assay. The TNFα and IL-6 concentrations were detected using the mouse CBA Th1/Th2/Th17 cytokine kit. The Phosflow Starter Kit contains Cytofix Fixation Buffer, Phosflow Perm Buffer III and Stain Buffer BSA.

[4] = tested on: Human mononuclear leukocytes; assay: LRBA levels in culture supernatants of mononuclear leukocytes stimulated with LPS; assay type: cell-based; settings: LPS 1 μg/ml
Method: as §3, §4

[5] = Bone Marrow, LPS 5 μg/g i.p., 24 h

For Lipopolysaccharide [LPS], the “B220 Median Intensity” value [1, 5] was 2423 ± 396.6 arbitrary fluorescence intensity units, the “B220 Percentage” value [1, 5] was 15.5 ± 5.1% and the “BAFFR Median Intensity” value [1, 5] was 693.3 ± 84.1 arbitrary fluorescence intensity units. The “BAFFR Percentage” value [1, 5] was 43.7 ± 4.9%, the “CD19 Median Intensity” value [1, 5] was 1951105 arbitrary fluorescence intensity units and the “CD19 Percentage” value [1, 5] was 17.9 ± 5.5%. The “CD21 Median Intensity” value [1, 5] was 378 ± 53.8 arbitrary fluorescence intensity units, the “CD21 Percentage” value [1, 5] was 24.5 ± 1.23% and the “TACI Percentage” value [1, 5] was 1.4 ± 0.35%. The “TLR4 Median Intensity” value [1, 5] was 592 ± 28.8 arbitrary fluorescence intensity units, the “TLR4 Percentage” value [1, 5] was 50.9 ± 3.3% and the “B220 Median Intensity fold” value ([1]; Bone Marrow) was 0.69↑. The “B220 Percentage fold” value ([1]; Bone Marrow) was 1.02, the “BAFFR Median Intensity fold” value ([1]; Bone Marrow) was 1.58↓ and the “BAFFR Percentage fold” value ([1]; Bone Marrow) was 0.81. The “CD19 Median Intensity fold” value ([1]; Bone Marrow) was 0.94, the “CD19 Percentage fold” value ([1]; Bone Marrow) was 0.83 and the “CD21 Median Intensity fold” value ([1]; Bone Marrow) was 2.02↓. For the same substance, the “CD21 Percentage fold” value ([1]; Bone Marrow) was 1.1, the “TACI Median Intensity fold” value ([1]; Bone Marrow) was 1.03 and the “TACI Percentage fold” value ([1]; Bone Marrow) was 2.16. The “TLR4 Median Intensity fold” value ([1]; Bone Marrow) was 0.97, the “TLR4 Percentage fold” value ([1]; Bone Marrow) was 1.13↓ and the “B220 Median Intensity” value ([1]; Spleen, LPS 5 μg/g i.p., 24 h) was 4031.3 ± 153.2 arbitrary fluorescence intensity units. For the same substance, the “B220 Percentage” value ([1]; Spleen, LPS 5 μg/g i.p., 24 h) was 58.7 ± 4.5%, the “BAFFR Median Intensity” value ([1]; Spleen, LPS 5 μg/g i.p., 24 h) was 842.7 ± 73.1 arbitrary fluorescence intensity units and the “BAFFR Percentage” value ([1]; Spleen, LPS 5 μg/g i.p., 24 h) was 94.7 ± 0.92%. The “CD19 Median Intensity” value ([1]; Spleen, LPS 5 μg/g i.p., 24 h) was 1792237 arbitrary fluorescence intensity units, the “CD19 Percentage” value ([1]; Spleen, LPS 5 μg/g i.p., 24 h) was 59 ± 4.1% and the “CD21 Median Intensity” value ([1]; Spleen, LPS 5 μg/g i.p., 24 h) was 580.71 ± 56.5 arbitrary fluorescence intensity units. For the same substance, the “CD21 Percentage” value ([1]; Spleen, LPS 5 μg/g i.p., 24 h) was 80.9 ± 9.7%, the “TACI Median Intensity” value ([1]; Spleen, LPS 5 μg/g i.p., 24 h) was 560.7 ± 60.1 arbitrary fluorescence intensity units and the “TACI Percentage” value ([1]; Spleen, LPS 5 μg/g i.p., 24 h) was 7.9 ± 2.70%. For the same substance, the “TLR4 Median Intensity” value ([1]; Spleen, LPS 5 μg/g i.p., 24 h) was 502.7 ± 3.1 arbitrary fluorescence intensity units, the “TLR4 Percentage” value ([1]; Spleen, LPS 5 μg/g i.p., 24 h) was 55.7 ± 4.0% and the “B220 Median Intensity fold” value ([1]; Spleen) was 1. The “B220 Percentage fold” value ([1]; Spleen) was 0.8↑, the “BAFFR Median Intensity fold” value ([1]; Spleen) was 1.19↓ and the “BAFFR Percentage fold” value ([1]; Spleen) was 0.98. The “CD19 Median Intensity fold” value ([1]; Spleen) was 1.07, the “CD19 Percentage fold” value ([1]; Spleen) was 0.8↑ and the “CD21 Median Intensity fold” value ([1]; Spleen) was 1.45↓. The “CD21 Percentage fold” value ([1]; Spleen) was 1.1, the “TACI Median Intensity fold” value ([1]; Spleen) was 1.1 and the “TACI Percentage fold” value ([1]; Spleen) was 0.35↑. For the same substance, the “TLR4 Median Intensity fold” value ([1]; Spleen) was 1.02, the “TLR4 Percentage fold” value ([1]; Spleen) was 1.16↓ and the “TACI on splenocytes and bone marrow cells” value [2] was “significantly upregulated”. For the same substance, the “average speed of vesicles” value ([3]; 3 min after adding LPS (100 ng/ml) into the media) was “doubles”, the “average speed of vesicles” value ([3]; after 5 and 23 min of LPS (100 ng/ml)) was “slows down to original levels” and the “LRBA secreted into plasma upon LPS stimulation” value (LRBA; high levels, upper value) was “up to 6.7 μg/L”. For the same substance, the “LRBA levels in plasma” value (LRBA; mice stimulated with LPS for 6 hours) was “significantly increased” and the “LRBA levels in the culture supernatants” value [4] was “significantly increased”.
